In patent US20200093737A1, “PHARMACEUTICAL DOSAGE FORMS CONTAINING TASK-1 AND TASK-3 CHANNEL INHIBITORS, AND THE USE OF SAME IN BREATHING DISORDER THERAPY” (priority 2016, published 2020):
Marks after values point to notes of the source that are not given here.

Test system: upper airways
Experiment: Animal model of obstructive sleep apnoea in the pig (collapsibility of the upper airways under negative pressure)
Type: in vivo, German Landrace pigs
Description: The effects of the formulations according to the invention of the inhibitors of TASK-1 and/or TASK-3 channels on the activation threshold of the genioglossus muscle by negative pressure and the collapsibility of the upper airways were investigated in a pig model for obstructive sleep apnoea. Using negative pressure, it is possible to induce collapse and thus obstruction of the upper airways in anaesthetized, spontaneously breathing pigs [Wirth et al., Sleep 36, 699-708 (2013)]. German Landrace pigs were used for the model. Since the nasal axis is in an almost vertical position in humans in a horizontal sleeping position, the pigs in the experiments were fixed in a sitting position (70 degrees), wherein the nose pointed upwards. After nasal administration, the formulation therefore flowed downwards over all regions of the upper airways. The pigs were anaesthetized and tracheotomized. One cannula each was inserted into the rostral and the caudal part of the trachea. Using a T connector, the rostral cannula was connected on the one hand to a device generating negative pressure and on the other hand to the caudal cannula. Using a T connector, the caudal cannula was connected to the rostral cannula and to a tube which allowed spontaneous breathing circumventing the upper airways. By appropriate closing and opening of the tubes it was thus possible for the pig to change from normal nasal breathing to breathing via the caudal cannula during the time when the upper airways were isolated and were connected to the device for generating negative pressure. The muscle activity of the Musculus genioglossus was recorded by electromyogram (EMG). At certain points in time, the collapsibility of the upper airways was tested by having the pig breathe via the caudal cannula and applying negative pressures of −50, −100 and −150 mbar (corresponding to −50, −100 and −150 cm water column (cm H2O)) to the upper airways. This caused the upper airways to collapse, which manifested itself in an interruption of the airflow and a pressure drop in the tube system. This test was conducted prior to administration of the test substance and at certain intervals after administration of the test substance. An appropriately effective test substance could prevent this collapse of the airways in the inspiratory phase. After changeover from nasal breathing to breathing via the caudal cannula, it was not possible to measure any EMG activity of the Musculus genioglossus in the anaesthetized pig. As a further test, the negative pressure at which EMG activity restarted was then determined. This threshold value was, if a test substance was effective, shifted to more positive values. The test was likewise conducted prior to the administration of the test substance and at certain intervals after the administration of the test substance. The test substance was administered by the nasal route. The results shown in the tables which follow were conducted with the compounds listed in Table 1 as Example 1, Example 3 and Example 4. Unless stated otherwise, the data were measured at a negative pressure of −100 mbar (corresponding to −100 cm water column (cm H2O)) on the upper airways. The active ingredients listed in Table 1 as Example 1, Example 3 and Example 4 were dissolved in the various formulations listed in Table 2 below and administered in an amount of 0 μg, 3 μg, 10 μg, 30 μg or 100 μg per pig. The active ingredient formulation or the pure vehicle was each administered with a pipette at a volume of 400 μl in each nostril. The duration of action in this pig model is defined as the time [min] in which a collapse of the upper airways was not observed in any animal, as a mean value of the specified number of animals. A duration of action specified as “>” X min signifies that the experiment was terminated at X min and up to this point a collapse of the upper airways was still not observed in any animal.

COc1cccc(C(=O)N2CCN(Cc3c(-c4ccc(Cl)cc4)nc4ccccn34)CC2)n1 [Example 3, (4-{[2-(4-chlorophenyl)imidazo[1,2-a]pyridin-3-yl]methyl}piperazin-1-yl)(6-methoxypyridin-2-yl)methanone]
Duration of action [min], mean value (Formulation 1 (no glycerol), 30 μg per pig nasal, -100 mbar): 180* min | Duration of action [min], mean value (Formulation 1 (phosphate buffer pH 7/polysorbate 80, no glycerol), 3 μg per pig nasal, -100 mbar): 150 min | Duration of action [min], mean value (Formulation 2 (5% w/v glycerol 85%, 4.25 absolute), 3 μg per pig nasal, -100 mbar): 210 min | Duration of action [min], mean value (Formulation 3 (2.5% w/v glycerol 85%, 2.125 absolute), 3 μg per pig nasal, -100 mbar): 240 min | Duration of action [min], mean value (Formulation 3 (2.5% w/v glycerol 85%, 2.125 absolute), 30 μg per pig nasal, -100 mbar): 390 min | Duration of action [min], mean value (Formulation 4 (1% w/v glycerol 85%, 0.85 absolute), 3 μg per pig nasal, -100 mbar): 150 min | Duration of action [min], mean value (Formulation 5 (2.5% w/v glycerol 85% + 20% w/v PEG400), 3 μg per pig nasal, -100 mbar): 240 min | Duration of action [min], mean value (Formulation 6 (20% w/v propylene glycol, no glycerol), 30 μg per pig nasal, -100 mbar): 180 min | Duration of action [min], mean value (Formulation 7 (1.25% w/v Na-CMC, no glycerol), 3 μg per pig nasal, -100 mbar): 120 min

O=C(C1CCCC1)N1CCN(Cc2c(-c3ccc(Br)cc3)nc3ccccn23)CC1 [Example 1, (4-{[2-(4-bromophenyl)imidazo[1,2-a]pyridin-3-yl]methyl}piperazin-1-yl)(cyclopentyl)methanone]
Duration of action [min], mean value (Formulation 1 (no glycerol), 10 μg per pig nasal, -50 mbar): 150 min | Duration of action [min], mean value (Formulation 1 (no glycerol), 10 μg per pig nasal, -100 mbar): 120 min | Duration of action [min], mean value (Formulation 3 (glycerol 2.5% w/v), 10 μg per pig nasal, -50 mbar): >270 min | Duration of action [min], mean value (Formulation 3 (glycerol 2.5% w/v), 10 μg per pig nasal, -100 mbar): 240 min

O=C(c1ccccc1F)N1CCN(Cc2c(-c3ccc(Br)cc3)nc3ccccn23)CC1 [Example 4, (4-{[2-(4-bromophenyl)imidazo[1,2-a]pyridin-3-yl]methyl}piperazin-1-yl)(2-fluorophenyl)methanone]
Duration of action [min], mean value (Formulation 1 (no glycerol), 100 μg per pig nasal, -50 mbar): 180 min | Duration of action [min], mean value (Formulation 1 (no glycerol), 100 μg per pig nasal, -100 mbar): 180 min | Duration of action [min], mean value (Formulation 3 (glycerol 2.5% w/v), 100 μg per pig nasal, -50 mbar): >300 min | Duration of action [min], mean value (Formulation 3 (glycerol 2.5% w/v), 100 μg per pig nasal, -100 mbar): 270 min
